The experiment has as its system CD19+ B cells. As to the kind of experiment: RGD blocking of B cells with Cilengitide. The class given is cell-based, C57BL6 mice. To be noted: 10 or 50 μM Cilengitide, 2 days, 3D organoids; αvβ3 and αvβ5 integrin binding to RGD. As to the method: Immune organoids were incubated in rinsed and incubated in FACS buffer containing fluorescence-conjugated antibodies and/or live cell stains for 12 hours at cell culture conditions. The samples underwent three rinsing rounds with each one involving aspiration of old medium and incubation in fresh FACS buffer for 1 hour. Each organoid was covered with 1×PBS during imaging with Zeiss 710 confocal microscope (Zeiss). In all flow cytometry experiments we started with same number of naïve B cells, i.e. 20,000 B cells. At each time point, samples were degraded using collagenase and the entire cell suspension (regardless of final cell numbers) was re-suspended in equal volume for all samples and equally divided into 3 separate staining groups for flow cytometry analysis (to stain for CD19, GL7, Fas, IgM, IgG1, and IgE). The entire volume was analyzed for total number of cells. Extracted cells were stained by incubation in FACS buffer containing various combinations of antibodies with 1:1000 dilution for 45 minutes in the dark at 4° C. The antibodies consisted of: FITC-, APC, or PE-Cy7-conjugated anti-mouse CD19, GL7, Fas, CD40L, IgG, and IgM (eBioscience). FACS buffer was prepared using 1×PBS++ with 10% FBS. The cell suspension was rinsed twice using the same buffer prior to low cytometer using BD Accuri™ C6 flow cytometer. Data analysis was performed using FlowJo (Tree Star). […]

Experimental findings from US10317395B1, “Ex vivo engineered immune organoids for controlled germinal center reactions” (Cornell University, priority 2015, dated 2019) are described below.

“Also recorded” adds a separate entry of the source.

As for `CC(C)[C@H]1C(=O)N[C@@H](CCCN=C(N)N)C(=O)NCC(=O)N[C@@H](CC(=O)O)C(=O)N[C@H](Cc2ccccc2)C(=O)N1C` [Cilengitide], the “change in CD19+ B cells when RGD signaling is blocked” value is “partial reduction; also recorded: partial but significant decrease”.
